These are literature values, as cited in article PMC2997942 (Molecular pharmaceutics, 2010).

For data set [1] the following is noted: clinical; ref Supplemental Table S6 references 1-19; cited from earlier work.
Data set [2] deals with Rat kidney OCTN2. Conditions: read-out: Ki or IC50; Rat kidney OCTN2 reconstituted in liposomes; cited from earlier work.

In general, Ki refers to the equilibrium dissociation constant of an inhibitor or competing ligand from its target. As to `COc1ccc2[nH]c([S+]([O-])Cc3ncc(C)c(OC)c3C)nc2c1` (centres unmarked) [Omeprazole], the “Documented to cause rhabdomyolysis and/or carnitine deficiency in the literature” value in data set [1] is “Yes[6]”. Also, in data set [2], the inhibition constant Ki is 14.6 µM.
